What was measured:
[1] = system: serine hydrolases (SHs) in mouse T-cell proteomes; experiment: Gel-based competitive ABPP, mouse T-cell proteomes in vitro, SH reactivity profile; type: biochemical; conditions: 100 nM, 30 minutes at 37° C.
ABHD6 = molecular target: T1, ABHD6 (Mus musculus, UniProt Q8R2Y0); experiment: ABPP-SILAM of brain tissue from treated mice; type: in vivo; parameters: from tissue; host or cells: thioglycolate-elicited peritoneal macrophages of mice; conditions: may not represent actual changes
T1 sequence (Q8R2Y0 1-336): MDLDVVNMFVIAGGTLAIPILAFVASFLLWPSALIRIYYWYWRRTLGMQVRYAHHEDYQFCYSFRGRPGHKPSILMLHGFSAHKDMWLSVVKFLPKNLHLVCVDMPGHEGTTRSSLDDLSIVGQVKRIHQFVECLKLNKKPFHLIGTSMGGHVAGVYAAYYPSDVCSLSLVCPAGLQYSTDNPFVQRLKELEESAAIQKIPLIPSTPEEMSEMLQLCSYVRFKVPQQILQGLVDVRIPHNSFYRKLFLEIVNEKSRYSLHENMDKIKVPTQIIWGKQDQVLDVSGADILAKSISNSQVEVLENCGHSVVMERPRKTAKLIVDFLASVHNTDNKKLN
Experimental: The potency and selectivity of 1,2,3-triazole ureas in vivo also was investigated. Mice were treated with the APEH inhibitor AA74-1 at various doses (0.2-1.6 mg/kg; PEG300 or 18:1:1 saline/ethanol/emulphor intraperitoneally) and sacrificed after 4 h. Brains and hearts were removed, homogenized, and analyzed by gel-based competitive ABPP. […] Finally, the possibility of extending ABPP-SILAC for the characterization of inhibitor selectivity in vivo was explored by taking advantage of recently described protocols for stable isotope labeling in mammals (SILAM). In this approach, brain tissues from vehicle- and AA74-1-treated mice were separately mixed with equivalent amounts of brain tissue from ‘heavy’ amino acid-fed mice, and the samples were then labeled with FP-biotin, enriched by avidin chromatography, analyzed by LC-MS, and SH activities quantified by measuring the ratio-of-ratios for observed peptide signals. […] The ratio-of-ratio signals for APEH indicated greater than 90% inhibition of this enzyme in AA74-1-treated animals (FIG. 5b, top), consistent with average spectral count values (14 and 1 spectral counts for APEH in vehicle-treated versus AA74-1-treated mice, respectively; FIG. 5b, bottom). […]
C57BL6 mice were labeled with ^15N. […] Brains were determined to be 95% labeled by mass spectrometry with ^15N and used for quantitative analysis. […]

APEH [2] = molecular target: T2, APEH (Mus musculus, UniProt Q8R146); experiment: ABPP-SILAM of brain tissue from treated mice; type: in vivo; conditions: treated mice (vehicle 14)
T2 sequence (Q8R146 1-732): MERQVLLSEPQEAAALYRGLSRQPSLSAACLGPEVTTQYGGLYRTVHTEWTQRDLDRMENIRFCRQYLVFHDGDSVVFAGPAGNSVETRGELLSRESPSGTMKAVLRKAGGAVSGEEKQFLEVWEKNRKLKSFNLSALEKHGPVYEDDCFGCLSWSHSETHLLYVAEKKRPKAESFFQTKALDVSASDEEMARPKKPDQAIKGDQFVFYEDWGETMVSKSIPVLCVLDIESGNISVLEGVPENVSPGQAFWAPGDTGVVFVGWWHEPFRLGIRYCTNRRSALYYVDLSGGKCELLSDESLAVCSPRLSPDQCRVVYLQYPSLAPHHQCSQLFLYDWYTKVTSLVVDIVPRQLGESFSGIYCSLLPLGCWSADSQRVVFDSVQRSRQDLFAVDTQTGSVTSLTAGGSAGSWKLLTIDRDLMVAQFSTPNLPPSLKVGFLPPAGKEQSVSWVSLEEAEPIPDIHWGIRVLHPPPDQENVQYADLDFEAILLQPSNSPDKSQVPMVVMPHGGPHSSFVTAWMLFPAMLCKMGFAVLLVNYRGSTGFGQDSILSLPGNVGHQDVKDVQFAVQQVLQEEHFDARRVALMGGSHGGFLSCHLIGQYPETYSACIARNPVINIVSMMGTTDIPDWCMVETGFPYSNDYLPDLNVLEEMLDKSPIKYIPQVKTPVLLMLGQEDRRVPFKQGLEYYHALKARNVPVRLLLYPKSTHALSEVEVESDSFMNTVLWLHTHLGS
Experimental: (§1) The potency and selectivity of 1,2,3-triazole ureas in vivo also was investigated. Mice were treated with the APEH inhibitor AA74-1 at various doses (0.2-1.6 mg/kg; PEG300 or 18:1:1 saline/ethanol/emulphor intraperitoneally) and sacrificed after 4 h. Brains and hearts were removed, homogenized, and analyzed by gel-based competitive ABPP. […] Finally, the possibility of extending ABPP-SILAC for the characterization of inhibitor selectivity in vivo was explored by taking advantage of recently described protocols for stable isotope labeling in mammals (SILAM). In this approach, brain tissues from vehicle- and AA74-1-treated mice were separately mixed with equivalent amounts of brain tissue from ‘heavy’ amino acid-fed mice, and the samples were then labeled with FP-biotin, enriched by avidin chromatography, analyzed by LC-MS, and SH activities quantified by measuring the ratio-of-ratios for observed peptide signals. […] The ratio-of-ratio signals for APEH indicated greater than 90% inhibition of this enzyme in AA74-1-treated animals (FIG. 5b, top), consistent with average spectral count values (14 and 1 spectral counts for APEH in vehicle-treated versus AA74-1-treated mice, respectively; FIG. 5b, bottom). […] ACHE, an enzyme that is targeted by other reported NHU inhibitors, was not inhibited by AA74-1 in either mouse brain (FIG. 5b) or transfected cell (FIG. 16) proteomes.
(§2) C57BL6 mice were labeled with ^15N. Briefly, each mouse was fed an ^15N-labeled protein diet starting immediately after weaning which continued for the next 10 weeks. The ^15N-labeled diet was generated by combining spirulina biomass ^15N-labeled (Cambridge Isotopes) with protein-free diet powder (Harlan TD 93328) in a 1:2 (wt/wt) ratio and an appropriate amount of H2O to generate a dough. This dough is then cut into 2-cm thick pellets and dried at 60° C. for 2-4 h and then at 35° C. overnight using an Excalibur food dehydrator. These ^15N-labeled food pellets are then used to replace normal chow. […] Brains were determined to be 95% labeled by mass spectrometry with ^15N and used for quantitative analysis. […]

PREPL = molecular target: T3, PREPL (Mus musculus, UniProt Q8C167); experiment: ABPP-SILAM of brain tissue from treated mice; type: in vivo; conditions: may not represent actual changes
T3 construct: from tissue; host or cells: mouse brain
Experimental: as §1, §2

ACHE = molecular target: T4, ACHE (Mus musculus, UniProt P21836); experiment: ABPP-SILAM of brain tissue from treated mice; type: in vivo; conditions: mouse brain proteome of treated mice
T4 construct: from tissue; host or cells: mouse brain
Experimental: as §1, §2

APEH [3] = molecular target: T2, APEH; experiment: Fluorogenic APEH substrate assay on brain proteomes of treated mice; type: in vivo; conditions: 0.4 mg/kg; brain proteome
Experimental: APEH activity assay was performed using fluorogenic substrate N-Acetyl-L-alanine p-nitroanilide.
Soluble brain proteomes (100 μL of 1 mg/mL protein) from AA74-1 (or vehicle)-injected mice were treated in a 96-well plate with N-acetyl-L-alanine 4-nitroanilide (100 μM final concentration) and the samples were incubated for 2 h at 37° C. Relative absorbance was measured with a plate reader at […]. Inhibition curves were generated using PRISM® software (GraphPad). Calculated values represent means±s.e.m for three independent experiments.

T4 sequence (P21836 32-614): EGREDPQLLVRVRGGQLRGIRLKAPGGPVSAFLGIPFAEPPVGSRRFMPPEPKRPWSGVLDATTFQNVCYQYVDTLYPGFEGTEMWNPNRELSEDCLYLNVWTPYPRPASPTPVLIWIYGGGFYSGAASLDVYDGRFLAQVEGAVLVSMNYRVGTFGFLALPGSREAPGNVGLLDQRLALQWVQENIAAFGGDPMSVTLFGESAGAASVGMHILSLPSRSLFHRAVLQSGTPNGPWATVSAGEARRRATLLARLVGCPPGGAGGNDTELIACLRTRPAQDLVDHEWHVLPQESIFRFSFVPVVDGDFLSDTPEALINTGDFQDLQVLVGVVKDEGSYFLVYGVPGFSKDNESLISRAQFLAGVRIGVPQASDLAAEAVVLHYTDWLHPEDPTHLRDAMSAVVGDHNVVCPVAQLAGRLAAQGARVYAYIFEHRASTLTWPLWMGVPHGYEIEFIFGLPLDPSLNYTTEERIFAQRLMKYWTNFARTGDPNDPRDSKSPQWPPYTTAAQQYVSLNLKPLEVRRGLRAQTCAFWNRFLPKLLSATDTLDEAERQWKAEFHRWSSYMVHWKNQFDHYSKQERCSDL
T3 sequence (Q8C167 whole entry): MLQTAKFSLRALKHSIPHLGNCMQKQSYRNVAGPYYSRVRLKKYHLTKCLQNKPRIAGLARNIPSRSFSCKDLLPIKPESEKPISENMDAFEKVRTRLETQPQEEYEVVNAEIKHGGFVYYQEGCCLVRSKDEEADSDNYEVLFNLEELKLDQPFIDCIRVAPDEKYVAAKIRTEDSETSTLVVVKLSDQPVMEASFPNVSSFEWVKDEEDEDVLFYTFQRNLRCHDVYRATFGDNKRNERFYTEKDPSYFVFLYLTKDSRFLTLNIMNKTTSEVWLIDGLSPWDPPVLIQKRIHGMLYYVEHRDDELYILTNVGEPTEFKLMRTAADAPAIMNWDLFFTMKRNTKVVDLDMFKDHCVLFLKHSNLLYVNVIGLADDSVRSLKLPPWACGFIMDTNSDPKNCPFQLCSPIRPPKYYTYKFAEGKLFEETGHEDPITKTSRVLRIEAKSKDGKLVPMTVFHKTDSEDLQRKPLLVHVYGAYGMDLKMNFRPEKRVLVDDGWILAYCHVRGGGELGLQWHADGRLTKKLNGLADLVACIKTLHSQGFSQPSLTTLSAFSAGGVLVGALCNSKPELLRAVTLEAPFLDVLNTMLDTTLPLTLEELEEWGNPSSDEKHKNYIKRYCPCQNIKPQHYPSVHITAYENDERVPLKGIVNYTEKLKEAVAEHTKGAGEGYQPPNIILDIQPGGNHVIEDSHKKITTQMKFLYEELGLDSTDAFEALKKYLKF

CC(C)CC(O)(CC(C)C)c1cnn(C(=O)N2CCCC2)n1 [AA74-1]
cross-reactivity with other SHs [1]: not interacting with other SHs | partial inhibition of ABHD6 suggested by ratio-of-ratio signals (ABHD6): 50-60% | average spectral count for APEH (APEH [2]): 1 spectral counts | partial inhibition of PREPL suggested by ratio-of-ratio signals (PREPL): 50-60% | ACHE inhibition in mouse brain (ACHE): not inhibited | APEH inhibition by substrate assay (APEH [3]): Complete inhibition of APEH

Reference: patent US9108930B2, “N1- and N2-carbamoyl-1,2,3-triazole serine hydrolase inhibitors and methods” (The Scripps Research Institute, priority 2011, dated 2015)
